From US11807835B2, “Detergent compositions containing a stabilized enzyme by phosphonates” (ECOLAB USA INC., priority 2016, dated 2023)

Tested on: protease
Experiment: Protease activity retention in detergent use solution (4000 ppm, 5 GPG water; peptidyl substrate, glycine buffer pH 9.0)
Assay type: biochemical
Conditions: for Relative Protease Enzyme Activity: use solution at 120° F.
Procedure: The enzyme activities in the detergents with different phosphonate levels were tested at 4000 ppm in 5 grains per gallon (GPG) water at 120° F. with various time points collected up to 4 hours, after a use solution was generated from the detergent composition. During the tests, the samples at different time points were collected and immediately frozen in an acetone/dry ice bath and stored in −80° C. before the activity of the enzyme was evaluated. For the use of such an assay, t=0 min was the reference point for 100% enzyme activity.
Assays of enzyme activity in formulations (% retention) were conducted to simulate a presoak condition in a beaker using the chemistry, temperature, and pH conditions relevant to manual warewash or presoak applications. Enzyme activity is an indicator of the stability of the enzyme in the detergent, specifically in an aqueous use solution within a sump (which is under conditions of high pH, temperature and dilution).
The analysis by protease assay was conducted as follows. For the assays, a detergent composition was used to generate an aqueous use solution evaluated herein.
Enzyme activity under presoak or manual warewash conditions was traced quantitatively using a standard protease assay. Samples were prepared under bench top conditions, whereby the use solution from a detergent composition or detergent was obtained and maintained at a presoak or manual warewash temperature in a stirring water bath. After the time course for assessing enzyme stability is initiated, aliquots were taken at various time points and flash-frozen. A time=0 sample was prepared for each series by dissolving the detergent formulation at room temperature, mixing thoroughly, and flash freezing. Samples were thawed and diluted as necessary in an assay buffer usually for use in the protease assay. A glycine buffer at pH 9.0 is used here. The assay monitored the direct reaction of the protease on a small, commercially available peptidyl substrate, with liberation of the product providing correlation to the active enzyme content. The product was detected using a plate reader with an appreciable dynamic range (upper absorbance limit of the instrument >3.5). Enzyme activity levels were assessed relative to a calibration curve with average values for replicate tests used to map protease stability under presoak or manual warewash use conditions. Enzyme retention at each time point was calculated as the % enzyme activity relative to the time=0 sample.

[1] = All Ash formula, phosphonate 0.3 wt-%, time 0 min
[2] = All Ash formula, phosphonate 0.3 wt-%, time 5 min
[3] = All Ash formula, phosphonate 0.3 wt-%, time 10 min
[4] = All Ash formula, phosphonate 0.3 wt-%, time 20 min
[5] = All Ash formula, phosphonate 0.3 wt-%, time 40 min
[6] = All Ash formula, phosphonate 0.3 wt-%, time 60 min
[7] = All Ash formula, phosphonate 0.3 wt-%, time 90 min
[8] = All Ash formula, phosphonate 0.3 wt-%, time 120 min
[9] = All Ash formula, phosphonate 0.3 wt-%, time 150 min
[10] = All Ash formula, phosphonate 0.3 wt-%, time 180 min
[11] = All Ash formula, phosphonate 0.3 wt-%, time 210 min
[12] = All Ash formula, phosphonate 0.3 wt-%, time 240 min
[13] = base formula, phosphonate 0.3 wt-%, time 0 min
[14] = base formula, phosphonate 0.3 wt-%, time 5 min
[15] = base formula, phosphonate 0.3 wt-%, time 10 min
[16] = base formula, phosphonate 0.3 wt-%, time 20 min
[17] = base formula, phosphonate 0.3 wt-%, time 40 min
[18] = base formula, phosphonate 0.3 wt-%, time 60 min
[19] = base formula, phosphonate 0.3 wt-%, time 90 min
[20] = base formula, phosphonate 0.3 wt-%, time 120 min
[21] = base formula, phosphonate 0.3 wt-%, time 150 min
[22] = base formula, phosphonate 0.3 wt-%, time 180 min
[23] = base formula, phosphonate 0.3 wt-%, time 210 min
[24] = base formula, phosphonate 0.3 wt-%, time 240 min
[25] = base formula, phosphonate 0.6 wt-%, time 0 min
[26] = base formula, phosphonate 0.6 wt-%, time 5 min
[27] = base formula, phosphonate 0.6 wt-%, time 10 min
[28] = base formula, phosphonate 0.6 wt-%, time 20 min
[29] = base formula, phosphonate 0.6 wt-%, time 40 min
[30] = base formula, phosphonate 0.6 wt-%, time 60 min
[31] = base formula, phosphonate 0.6 wt-%, time 90 min
[32] = base formula, phosphonate 0.6 wt-%, time 120 min
[33] = base formula, phosphonate 0.6 wt-%, time 150 min
[34] = base formula, phosphonate 0.6 wt-%, time 180 min
[35] = base formula, phosphonate 0.6 wt-%, time 210 min
[36] = base formula, phosphonate 0.6 wt-%, time 240 min
[37] = base formula, phosphonate at 0.1% elemental phosphorus, time 0 min
[38] = base formula, phosphonate at 0.1% elemental phosphorus, time 5 min
[39] = base formula, phosphonate at 0.1% elemental phosphorus, time 10 min
[40] = base formula, phosphonate at 0.1% elemental phosphorus, time 20 min
[41] = base formula, phosphonate at 0.1% elemental phosphorus, time 40 min
[42] = base formula, phosphonate at 0.1% elemental phosphorus, time 60 min
[43] = base formula, phosphonate at 0.1% elemental phosphorus, time 90 min
[44] = base formula, phosphonate at 0.1% elemental phosphorus, time 120 min
[45] = base formula, phosphonate at 0.1% elemental phosphorus, time 150 min
[46] = base formula, phosphonate at 0.1% elemental phosphorus, time 180 min
[47] = base formula, phosphonate at 0.1% elemental phosphorus, time 210 min
[48] = base formula, phosphonate at 0.1% elemental phosphorus, time 240 min

O=P(O)(O)CN(CP(=O)(O)O)CP(=O)(O)O [ATMP, Aminotri (methylene phosphonic acid)]
Relative Protease Enzyme Activity [1]: 100.00% | Relative Protease Enzyme Activity [2]: 84.60% | Relative Protease Enzyme Activity [3]: 75.67% | Relative Protease Enzyme Activity [4]: 53.32% | Relative Protease Enzyme Activity [5]: 33.78% | Relative Protease Enzyme Activity [6]: 22.22% | Relative Protease Enzyme Activity [7]: 15.40% | Relative Protease Enzyme Activity [8]: 11.13% | Relative Protease Enzyme Activity [9]: 9.39% | Relative Protease Enzyme Activity [10]: 7.41% | Relative Protease Enzyme Activity [11]: 6.17% | Relative Protease Enzyme Activity [12]: 5.58% | protease stability in all ash formula (all ash formula, versus same composition with PBTC or HEDP without amine(s), FIG. 2D): more stable | Relative Protease Enzyme Activity [13]: 100.00% | Relative Protease Enzyme Activity [14]: 94.95% | Relative Protease Enzyme Activity [15]: 94.68% | Relative Protease Enzyme Activity [16]: 89.76% | Relative Protease Enzyme Activity [17]: 87.06% | Relative Protease Enzyme Activity [18]: 83.93% | Relative Protease Enzyme Activity [19]: 80.79% | Relative Protease Enzyme Activity [20]: 76.31% | Relative Protease Enzyme Activity [21]: 73.96% | Relative Protease Enzyme Activity [22]: 70.37% | Relative Protease Enzyme Activity [23]: 65.72% | Relative Protease Enzyme Activity [24]: 63.75% | Relative Protease Enzyme Activity [25]: 100.00% | Relative Protease Enzyme Activity [26]: 91.70% | Relative Protease Enzyme Activity [27]: 102.58% | Relative Protease Enzyme Activity [28]: 100.03% | Relative Protease Enzyme Activity [29]: 97.16% | Relative Protease Enzyme Activity [30]: 92.31% | Relative Protease Enzyme Activity [31]: 89.99% | Relative Protease Enzyme Activity [32]: 91.60% | Relative Protease Enzyme Activity [33]: 86.21% | Relative Protease Enzyme Activity [34]: 89.08% | Relative Protease Enzyme Activity [35]: 89.86% | Relative Protease Enzyme Activity [36]: 82.33% | Relative Protease Enzyme Activity [37]: 100.00% | Relative Protease Enzyme Activity [38]: 122.55% | Relative Protease Enzyme Activity [39]: 116.65% | Relative Protease Enzyme Activity [40]: 115.14% | Relative Protease Enzyme Activity [41]: 107.73% | Relative Protease Enzyme Activity [42]: 102.70% | Relative Protease Enzyme Activity [43]: 111.18% | Relative Protease Enzyme Activity [44]: 106.19% | Relative Protease Enzyme Activity [45]: 96.80% | Relative Protease Enzyme Activity [46]: 93.35% | Relative Protease Enzyme Activity [47]: 90.51% | Relative Protease Enzyme Activity [48]: 88.60%

CC(O)(P(=O)(O)O)P(=O)(O)O [HEDP, 1-hydroxy ethylidene-1,1-diphosphonic acid]
Relative Protease Enzyme Activity [1]: 100.00% | Relative Protease Enzyme Activity [2]: 8.63% | Relative Protease Enzyme Activity [3]: 3.25% | Relative Protease Enzyme Activity [4]: 0.61% | Relative Protease Enzyme Activity [5]: −1.32% | Relative Protease Enzyme Activity [6]: −1.66% | Relative Protease Enzyme Activity [7]: −0.97% | Relative Protease Enzyme Activity [8]: −1.23% | Relative Protease Enzyme Activity [9]: −0.85% | Relative Protease Enzyme Activity [10]: −0.93% | Relative Protease Enzyme Activity [11]: −0.42% | Relative Protease Enzyme Activity [12]: −0.42% | Relative Protease Enzyme Activity [13]: 100.00% | Relative Protease Enzyme Activity [14]: 52.21% | Relative Protease Enzyme Activity [15]: 32.95% | Relative Protease Enzyme Activity [16]: 15.91% | Relative Protease Enzyme Activity [17]: 8.68% | Relative Protease Enzyme Activity [18]: 5.52% | Relative Protease Enzyme Activity [19]: 4.10% | Relative Protease Enzyme Activity [20]: 3.10% | Relative Protease Enzyme Activity [21]: 2.39% | Relative Protease Enzyme Activity [22]: 1.65% | Relative Protease Enzyme Activity [23]: 1.36% | Relative Protease Enzyme Activity [24]: 1.20% | Relative Protease Enzyme Activity [25]: 100.00% | Relative Protease Enzyme Activity [26]: 69.69% | Relative Protease Enzyme Activity [27]: 51.90% | Relative Protease Enzyme Activity [28]: 27.67% | Relative Protease Enzyme Activity [29]: 12.41% | Relative Protease Enzyme Activity [30]: 7.62% | Relative Protease Enzyme Activity [31]: 4.70% | Relative Protease Enzyme Activity [32]: 2.94% | Relative Protease Enzyme Activity [33]: 1.79% | Relative Protease Enzyme Activity [34]: 0.92% | Relative Protease Enzyme Activity [35]: 0.71% | Relative Protease Enzyme Activity [36]: 0.45% | Relative Protease Enzyme Activity [37]: 100.00% | Relative Protease Enzyme Activity [38]: 77.74% | Relative Protease Enzyme Activity [39]: 53.71% | Relative Protease Enzyme Activity [40]: 23.58% | Relative Protease Enzyme Activity [41]: 9.12% | Relative Protease Enzyme Activity [42]: 5.36% | Relative Protease Enzyme Activity [43]: 3.76% | Relative Protease Enzyme Activity [44]: 2.44% | Relative Protease Enzyme Activity [45]: 1.45% | Relative Protease Enzyme Activity [46]: 0.74% | Relative Protease Enzyme Activity [47]: 0.64% | Relative Protease Enzyme Activity [48]: 0.45% | enzyme activity of amine salt of the phosphonate versus non-neutralized phosphonate (phosphonate neutralized with an amine, such as triethanolamine): much improved enzyme activity
